Test results taken from ChEMBL document CHEMBL3991601, “The target landscape of clinical kinase drugs” (Science, 2017).
Activity calls are given as the source filed them. Cut-off read from the data, not from the text of the source, for most assays here: actives have a measured Kd and inactives only a lower limit.

Experiments:
[1] = molecular target: Mitogen-activated protein kinase 1 (Homo sapiens, UniProt P28482)
[2] = molecular target: Cyclin-dependent kinase 13 (Homo sapiens, UniProt Q14004)
[3] = molecular target: Cyclin-dependent kinase 6 (Homo sapiens, UniProt Q00534)
TGF-beta receptor type-2 = TGF-beta receptor type-2 (Homo sapiens, UniProt P37173)
[4] = molecular target: U5 small nuclear ribonucleoprotein 200 kDa helicase (Homo sapiens, UniProt O75643)
[5] = molecular target: T1, Non-receptor tyrosine-protein kinase TNK1 (Homo sapiens, UniProt Q13470)
T1 sequence (Q13470 whole entry): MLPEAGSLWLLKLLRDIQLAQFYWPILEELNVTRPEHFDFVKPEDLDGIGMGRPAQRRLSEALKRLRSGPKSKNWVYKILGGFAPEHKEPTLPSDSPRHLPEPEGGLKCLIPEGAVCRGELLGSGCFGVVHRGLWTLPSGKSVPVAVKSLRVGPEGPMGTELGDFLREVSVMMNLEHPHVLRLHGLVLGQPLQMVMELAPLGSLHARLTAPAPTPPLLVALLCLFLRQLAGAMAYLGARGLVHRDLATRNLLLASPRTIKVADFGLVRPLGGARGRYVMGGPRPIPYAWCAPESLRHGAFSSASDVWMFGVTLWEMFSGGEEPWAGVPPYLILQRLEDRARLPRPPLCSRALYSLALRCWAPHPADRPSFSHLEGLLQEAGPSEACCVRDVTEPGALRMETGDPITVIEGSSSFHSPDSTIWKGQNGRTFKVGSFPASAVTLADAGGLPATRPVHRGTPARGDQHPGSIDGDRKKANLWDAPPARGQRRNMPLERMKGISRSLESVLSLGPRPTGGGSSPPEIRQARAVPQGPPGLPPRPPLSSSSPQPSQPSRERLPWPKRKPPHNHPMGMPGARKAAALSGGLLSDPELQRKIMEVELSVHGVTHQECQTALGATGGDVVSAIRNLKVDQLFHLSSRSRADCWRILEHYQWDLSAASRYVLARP

dCTP pyrophosphatase 1 = molecular target: T2, dCTP pyrophosphatase 1 (Homo sapiens, UniProt Q9H773)
T2 sequence (Q9H773 whole entry): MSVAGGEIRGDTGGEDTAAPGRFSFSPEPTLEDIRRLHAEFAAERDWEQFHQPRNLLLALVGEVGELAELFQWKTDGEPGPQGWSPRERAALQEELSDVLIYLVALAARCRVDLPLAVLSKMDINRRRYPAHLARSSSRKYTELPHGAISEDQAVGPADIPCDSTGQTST

[6] = molecular target: T3, Serine/threonine-protein kinase NLK (Homo sapiens, UniProt Q9UBE8)
T3 sequence (Q9UBE8 whole entry): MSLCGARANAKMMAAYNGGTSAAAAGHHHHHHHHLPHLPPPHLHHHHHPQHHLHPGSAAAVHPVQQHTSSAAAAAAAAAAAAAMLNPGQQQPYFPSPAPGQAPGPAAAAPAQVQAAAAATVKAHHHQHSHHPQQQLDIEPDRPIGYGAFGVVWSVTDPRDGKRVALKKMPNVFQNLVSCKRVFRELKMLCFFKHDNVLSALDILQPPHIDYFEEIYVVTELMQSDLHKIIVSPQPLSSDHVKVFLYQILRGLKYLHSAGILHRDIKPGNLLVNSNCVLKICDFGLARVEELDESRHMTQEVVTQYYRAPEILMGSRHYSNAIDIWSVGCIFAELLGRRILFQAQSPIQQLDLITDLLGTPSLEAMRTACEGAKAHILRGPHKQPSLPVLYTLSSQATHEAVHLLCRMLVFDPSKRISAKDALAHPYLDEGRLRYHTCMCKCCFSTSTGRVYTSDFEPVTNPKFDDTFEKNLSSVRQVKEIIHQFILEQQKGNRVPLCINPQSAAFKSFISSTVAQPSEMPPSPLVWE

[7] = molecular target: Ribosomal protein S6 kinase alpha-5 (Homo sapiens, UniProt O75582)
[8] = molecular target: RAC-alpha serine/threonine-protein kinase (Homo sapiens, UniProt P31749)
[9] = molecular target: T4, Mitogen-activated protein kinase kinase kinase kinase 2 (Homo sapiens, UniProt Q12851)
T4 sequence (Q12851 whole entry): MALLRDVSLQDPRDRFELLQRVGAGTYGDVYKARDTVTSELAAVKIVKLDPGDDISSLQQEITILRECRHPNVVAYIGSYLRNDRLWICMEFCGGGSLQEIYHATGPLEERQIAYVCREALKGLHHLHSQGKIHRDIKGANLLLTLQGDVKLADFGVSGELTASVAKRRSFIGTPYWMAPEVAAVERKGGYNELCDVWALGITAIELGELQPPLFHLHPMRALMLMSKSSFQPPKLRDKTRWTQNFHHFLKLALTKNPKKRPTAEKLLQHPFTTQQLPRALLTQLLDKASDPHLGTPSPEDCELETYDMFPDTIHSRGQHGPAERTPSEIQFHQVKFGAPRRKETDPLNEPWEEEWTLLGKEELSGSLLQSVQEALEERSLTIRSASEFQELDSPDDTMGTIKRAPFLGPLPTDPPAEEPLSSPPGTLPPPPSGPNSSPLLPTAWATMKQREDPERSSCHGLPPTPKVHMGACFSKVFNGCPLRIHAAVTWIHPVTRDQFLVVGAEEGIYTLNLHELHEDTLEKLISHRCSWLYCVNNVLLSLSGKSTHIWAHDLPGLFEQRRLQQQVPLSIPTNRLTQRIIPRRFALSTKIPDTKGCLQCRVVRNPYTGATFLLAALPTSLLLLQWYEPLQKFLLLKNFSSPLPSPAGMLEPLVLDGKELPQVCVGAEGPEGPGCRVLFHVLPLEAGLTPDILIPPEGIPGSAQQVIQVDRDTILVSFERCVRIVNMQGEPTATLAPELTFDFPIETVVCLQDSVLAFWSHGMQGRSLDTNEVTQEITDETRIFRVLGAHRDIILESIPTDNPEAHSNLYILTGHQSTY
Note: in the data inactive means no Kd found up to 30 µM.

TGF-beta receptor type-2, sequence (P37173 whole entry): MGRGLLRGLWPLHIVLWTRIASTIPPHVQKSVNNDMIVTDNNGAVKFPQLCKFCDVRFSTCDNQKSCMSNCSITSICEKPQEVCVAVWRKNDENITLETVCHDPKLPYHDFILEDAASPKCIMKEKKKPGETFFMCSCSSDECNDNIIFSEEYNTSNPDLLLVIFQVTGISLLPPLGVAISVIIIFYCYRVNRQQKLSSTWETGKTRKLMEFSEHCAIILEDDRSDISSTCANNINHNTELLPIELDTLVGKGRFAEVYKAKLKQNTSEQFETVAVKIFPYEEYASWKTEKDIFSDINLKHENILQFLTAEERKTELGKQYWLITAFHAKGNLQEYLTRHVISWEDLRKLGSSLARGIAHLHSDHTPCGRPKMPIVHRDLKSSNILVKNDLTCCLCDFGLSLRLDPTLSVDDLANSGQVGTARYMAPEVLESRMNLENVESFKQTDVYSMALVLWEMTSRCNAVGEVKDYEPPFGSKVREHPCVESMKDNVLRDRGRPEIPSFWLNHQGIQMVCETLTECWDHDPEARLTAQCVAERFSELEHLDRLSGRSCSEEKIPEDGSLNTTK
Mitogen-activated protein kinase 1, sequence (P28482 whole entry): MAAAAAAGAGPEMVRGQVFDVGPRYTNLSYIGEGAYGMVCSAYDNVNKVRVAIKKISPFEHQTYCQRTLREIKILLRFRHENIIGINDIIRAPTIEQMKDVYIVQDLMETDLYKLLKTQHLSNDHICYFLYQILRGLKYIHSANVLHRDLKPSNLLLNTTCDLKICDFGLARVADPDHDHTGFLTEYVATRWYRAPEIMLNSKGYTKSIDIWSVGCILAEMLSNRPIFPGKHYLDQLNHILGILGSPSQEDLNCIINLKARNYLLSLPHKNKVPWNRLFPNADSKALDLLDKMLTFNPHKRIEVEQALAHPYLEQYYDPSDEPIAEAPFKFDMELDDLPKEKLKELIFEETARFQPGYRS
RAC-alpha serine/threonine-protein kinase, sequence (P31749 whole entry): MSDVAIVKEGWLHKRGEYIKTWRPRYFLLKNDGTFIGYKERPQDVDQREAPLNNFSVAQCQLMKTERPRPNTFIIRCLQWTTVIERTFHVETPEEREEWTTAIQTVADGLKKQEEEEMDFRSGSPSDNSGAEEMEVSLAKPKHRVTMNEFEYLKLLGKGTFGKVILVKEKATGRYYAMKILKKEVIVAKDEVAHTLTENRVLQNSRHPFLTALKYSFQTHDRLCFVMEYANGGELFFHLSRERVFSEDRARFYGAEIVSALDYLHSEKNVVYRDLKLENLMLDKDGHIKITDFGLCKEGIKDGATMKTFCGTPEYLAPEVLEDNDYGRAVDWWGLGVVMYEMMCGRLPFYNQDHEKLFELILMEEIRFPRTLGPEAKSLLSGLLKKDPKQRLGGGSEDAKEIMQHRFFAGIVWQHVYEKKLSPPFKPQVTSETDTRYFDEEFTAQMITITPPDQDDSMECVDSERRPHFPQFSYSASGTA
Cyclin-dependent kinase 13, sequence (Q14004 whole entry): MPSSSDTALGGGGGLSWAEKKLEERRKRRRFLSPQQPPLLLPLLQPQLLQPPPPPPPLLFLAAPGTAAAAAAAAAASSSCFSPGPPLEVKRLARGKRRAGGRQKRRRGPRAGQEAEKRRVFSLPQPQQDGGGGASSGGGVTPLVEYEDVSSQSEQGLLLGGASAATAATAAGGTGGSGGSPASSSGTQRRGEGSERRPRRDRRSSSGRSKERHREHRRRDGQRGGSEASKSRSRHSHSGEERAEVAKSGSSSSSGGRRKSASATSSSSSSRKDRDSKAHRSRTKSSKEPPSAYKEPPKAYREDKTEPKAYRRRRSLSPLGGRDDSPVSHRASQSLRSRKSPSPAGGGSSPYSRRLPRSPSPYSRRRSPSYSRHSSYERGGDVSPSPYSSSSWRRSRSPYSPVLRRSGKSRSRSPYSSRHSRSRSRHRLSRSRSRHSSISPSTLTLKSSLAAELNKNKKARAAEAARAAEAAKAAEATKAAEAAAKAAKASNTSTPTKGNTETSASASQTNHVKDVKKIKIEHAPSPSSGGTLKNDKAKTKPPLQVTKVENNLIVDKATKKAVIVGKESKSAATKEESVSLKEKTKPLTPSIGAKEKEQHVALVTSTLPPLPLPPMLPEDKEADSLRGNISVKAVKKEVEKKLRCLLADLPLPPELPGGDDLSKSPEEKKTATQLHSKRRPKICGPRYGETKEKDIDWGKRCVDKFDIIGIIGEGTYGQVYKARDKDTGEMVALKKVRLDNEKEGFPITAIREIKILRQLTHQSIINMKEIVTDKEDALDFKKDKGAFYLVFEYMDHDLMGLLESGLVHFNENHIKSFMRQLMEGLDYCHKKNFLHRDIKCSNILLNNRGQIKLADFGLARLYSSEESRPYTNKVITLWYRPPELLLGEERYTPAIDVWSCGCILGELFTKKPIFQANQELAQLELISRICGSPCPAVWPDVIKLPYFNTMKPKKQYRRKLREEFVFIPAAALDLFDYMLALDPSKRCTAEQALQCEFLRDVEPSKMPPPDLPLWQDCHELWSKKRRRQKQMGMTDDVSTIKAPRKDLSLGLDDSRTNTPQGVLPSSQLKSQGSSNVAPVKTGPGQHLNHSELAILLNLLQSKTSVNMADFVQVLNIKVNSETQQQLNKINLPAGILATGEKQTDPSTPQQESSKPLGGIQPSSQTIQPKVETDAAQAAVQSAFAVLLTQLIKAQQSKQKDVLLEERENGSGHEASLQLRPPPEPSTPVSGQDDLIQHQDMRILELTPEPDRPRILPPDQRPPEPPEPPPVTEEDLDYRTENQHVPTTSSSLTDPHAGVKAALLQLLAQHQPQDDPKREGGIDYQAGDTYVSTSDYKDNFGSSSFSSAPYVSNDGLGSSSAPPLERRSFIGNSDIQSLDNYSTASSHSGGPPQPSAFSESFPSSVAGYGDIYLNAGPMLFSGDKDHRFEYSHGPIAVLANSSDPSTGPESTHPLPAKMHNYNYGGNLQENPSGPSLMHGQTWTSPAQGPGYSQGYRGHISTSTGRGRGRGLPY
U5 small nuclear ribonucleoprotein 200 kDa helicase, sequence (O75643 whole entry): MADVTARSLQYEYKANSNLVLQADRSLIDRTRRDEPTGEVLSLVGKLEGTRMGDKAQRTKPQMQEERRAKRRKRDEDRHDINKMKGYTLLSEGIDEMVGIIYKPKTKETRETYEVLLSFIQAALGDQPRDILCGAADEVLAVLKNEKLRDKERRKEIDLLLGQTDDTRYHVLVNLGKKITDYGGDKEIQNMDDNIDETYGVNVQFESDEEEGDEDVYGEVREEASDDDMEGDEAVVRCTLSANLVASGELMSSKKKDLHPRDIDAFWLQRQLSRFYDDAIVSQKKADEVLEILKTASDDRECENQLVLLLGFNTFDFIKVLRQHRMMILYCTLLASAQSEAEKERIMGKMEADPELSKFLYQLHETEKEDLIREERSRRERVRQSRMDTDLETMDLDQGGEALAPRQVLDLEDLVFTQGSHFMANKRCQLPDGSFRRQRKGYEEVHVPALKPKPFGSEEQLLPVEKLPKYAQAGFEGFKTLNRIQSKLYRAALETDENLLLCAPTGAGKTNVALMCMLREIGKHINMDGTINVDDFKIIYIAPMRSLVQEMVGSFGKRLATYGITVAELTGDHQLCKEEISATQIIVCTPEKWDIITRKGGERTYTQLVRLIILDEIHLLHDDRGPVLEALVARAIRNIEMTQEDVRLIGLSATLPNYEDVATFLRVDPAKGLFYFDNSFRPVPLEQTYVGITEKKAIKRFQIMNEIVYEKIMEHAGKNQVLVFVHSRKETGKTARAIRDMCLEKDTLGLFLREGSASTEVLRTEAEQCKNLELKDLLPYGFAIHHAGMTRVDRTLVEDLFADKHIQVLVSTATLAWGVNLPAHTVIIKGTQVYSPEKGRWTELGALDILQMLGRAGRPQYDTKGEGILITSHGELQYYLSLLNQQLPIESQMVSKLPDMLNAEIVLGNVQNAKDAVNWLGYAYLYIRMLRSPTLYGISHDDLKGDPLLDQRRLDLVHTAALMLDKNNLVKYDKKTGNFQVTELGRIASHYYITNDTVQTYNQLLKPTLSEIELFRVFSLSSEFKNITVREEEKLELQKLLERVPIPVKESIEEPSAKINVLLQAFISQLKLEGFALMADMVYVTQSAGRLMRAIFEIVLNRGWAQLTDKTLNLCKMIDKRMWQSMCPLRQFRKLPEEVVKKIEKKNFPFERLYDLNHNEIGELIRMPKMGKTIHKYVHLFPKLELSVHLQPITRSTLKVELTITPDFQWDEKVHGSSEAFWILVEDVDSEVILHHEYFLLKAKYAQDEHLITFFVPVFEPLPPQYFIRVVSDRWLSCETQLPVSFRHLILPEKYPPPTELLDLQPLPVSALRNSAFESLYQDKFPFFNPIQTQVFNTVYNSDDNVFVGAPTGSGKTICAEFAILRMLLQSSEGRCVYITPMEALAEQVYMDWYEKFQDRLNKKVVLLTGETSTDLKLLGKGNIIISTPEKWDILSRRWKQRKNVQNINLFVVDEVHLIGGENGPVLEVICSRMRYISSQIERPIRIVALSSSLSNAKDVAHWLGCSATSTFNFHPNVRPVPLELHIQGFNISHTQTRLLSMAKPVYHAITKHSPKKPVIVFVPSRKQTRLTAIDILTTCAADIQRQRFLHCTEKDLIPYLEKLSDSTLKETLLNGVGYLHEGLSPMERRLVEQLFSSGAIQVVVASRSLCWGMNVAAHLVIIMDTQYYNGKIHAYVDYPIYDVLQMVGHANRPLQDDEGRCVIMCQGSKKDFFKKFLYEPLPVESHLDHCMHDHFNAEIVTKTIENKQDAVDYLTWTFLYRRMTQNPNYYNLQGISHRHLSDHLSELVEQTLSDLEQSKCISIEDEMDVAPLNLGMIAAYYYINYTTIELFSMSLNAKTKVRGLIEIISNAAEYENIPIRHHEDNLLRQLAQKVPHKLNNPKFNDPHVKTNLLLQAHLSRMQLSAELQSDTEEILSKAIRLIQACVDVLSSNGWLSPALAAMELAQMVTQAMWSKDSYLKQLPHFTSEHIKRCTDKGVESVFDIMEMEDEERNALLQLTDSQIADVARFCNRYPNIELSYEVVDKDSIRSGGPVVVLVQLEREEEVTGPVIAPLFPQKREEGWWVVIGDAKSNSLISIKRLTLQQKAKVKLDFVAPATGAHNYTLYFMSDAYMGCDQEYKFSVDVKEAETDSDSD

SMILES | Kd [1] | Kd [2] | Kd [3] | Kd (TGF-beta receptor type-2) | Kd [4] | Kd [5] | Kd (dCTP pyrophosphatase 1) | Kd [6] | Kd [7] | Kd [8] | Kd [9]
O=c1sn(-c2cccc3ccccc23)c(=O)n1Cc1ccccc1 [TIDEGLUSIB] | > 30 µM (inactive) | > 30 µM (inactive) | > 30 µM (inactive) | > 30 µM (inactive) | > 30 µM (inactive) | > 30 µM (inactive) | > 30 µM (inactive) | > 30 µM (inactive) | > 30 µM (inactive) | > 30 µM (inactive) | > 30 µM (inactive)
Cn1cc(-c2ccc3nnc(C(F)(F)c4ccc5ncccc5c4)n3n2)cn1 [JNJ-38877605] | > 30 µM (inactive) | > 30 µM (inactive) | > 30 µM (inactive) | > 30 µM (inactive) | > 30 µM (inactive) | > 30 µM (inactive) | > 30 µM (inactive) | > 30 µM (inactive) | > 30 µM (inactive) | > 30 µM (inactive) | > 30 µM (inactive)
CNS(=O)(=O)Nc1nccc(Cc2c(C)c3ccc(Oc4ncccn4)cc3oc2=O)c1F [AVUTOMETINIB] | > 30 µM (inactive) | > 30 µM (inactive) | > 30 µM (inactive) | > 30 µM (inactive) | > 30 µM (inactive) | > 30 µM (inactive) | > 30 µM (inactive) | > 30 µM (inactive) | > 30 µM (inactive) | > 30 µM (inactive) | > 30 µM (inactive)
CN(C)C(=O)c1cc2cnc(Nc3ccc(N4CCNCC4)cn3)nc2n1C1CCCC1 [RIBOCICLIB] | > 30 µM (inactive) | > 30 µM (inactive) | – | > 30 µM (inactive) | > 30 µM (inactive) | > 30 µM (inactive) | > 30 µM (inactive) | > 30 µM (inactive) | > 30 µM (inactive) | > 30 µM (inactive) | > 30 µM (inactive)
COc1ccc(-c2ccc3c(N4CCOC[C@@H]4C)nc(N4CCOC[C@@H]4C)nc3n2)cc1CO [AZD-8055] | > 30 µM (inactive) | > 30 µM (inactive) | > 30 µM (inactive) | > 30 µM (inactive) | > 30 µM (inactive) | > 30 µM (inactive) | > 30 µM (inactive) | > 30 µM (inactive) | > 30 µM (inactive) | > 30 µM (inactive) | > 30 µM (inactive)
COc1cc2nccc(Oc3ccc(NC(=O)Nc4cc(C)on4)c(Cl)c3)c2cc1OC [TIVOZANIB] | > 30 µM (inactive) | > 30 µM (inactive) | > 30 µM (inactive) | > 30 µM (inactive) | > 30 µM (inactive) | > 30 µM (inactive) | > 30 µM (inactive) | > 30 µM (inactive) | > 30 µM (inactive) | > 30 µM (inactive) | 2.38 µM (active)
C[C@@H](Nc1cc(F)cc(F)c1)c1cc(C(=O)N(C)C)cc2c(=O)cc(N3CCOCC3)oc12 [AZD-8186] | > 30 µM (inactive) | > 30 µM (inactive) | > 30 µM (inactive) | > 30 µM (inactive) | > 30 µM (inactive) | > 30 µM (inactive) | > 30 µM (inactive) | > 30 µM (inactive) | > 30 µM (inactive) | > 30 µM (inactive) | > 30 µM (inactive)
CNC(=O)CN1CCC(Oc2cc3c(Nc4cccc(Cl)c4F)ncnc3cc2OC)CC1 [SAPITINIB] | > 30 µM (inactive) | > 30 µM (inactive) | > 30 µM (inactive) | > 30 µM (inactive) | > 30 µM (inactive) | > 30 µM (inactive) | > 30 µM (inactive) | > 30 µM (inactive) | > 30 µM (inactive) | > 30 µM (inactive) | > 30 µM (inactive)
CNC(=O)c1ccc(C)c(-n2c(C)cc(OCc3ccc(F)cc3F)c(Br)c2=O)c1 [PH-797804] | > 30 µM (inactive) | > 30 µM (inactive) | > 30 µM (inactive) | > 30 µM (inactive) | > 30 µM (inactive) | > 30 µM (inactive) | > 30 µM (inactive) | > 30 µM (inactive) | > 30 µM (inactive) | > 30 µM (inactive) | > 30 µM (inactive)
COC(=O)[C@@]1(O)C[C@H]2O[C@]1(C)n1c3ccccc3c3c4c(c5c6ccccc6n2c5c31)C(=O)NC4 [K-252A] | > 30 µM (inactive) | > 30 µM (inactive) | 0.399 µM (active) | > 30 µM (inactive) | > 30 µM (inactive) | 0.287 µM (active) | > 30 µM (inactive) | > 30 µM (inactive) | 14.7 µM (active) | > 30 µM (inactive) | 0.131 µM (active)
CN1CCC(COc2cnc(-c3cccc(Cn4nc(-c5cccc(C#N)c5)ccc4=O)c3)nc2)CC1 [TEPOTINIB] | > 30 µM (inactive) | > 30 µM (inactive) | > 30 µM (inactive) | > 30 µM (inactive) | > 30 µM (inactive) | > 30 µM (inactive) | > 30 µM (inactive) | > 30 µM (inactive) | > 30 µM (inactive) | > 30 µM (inactive) | > 30 µM (inactive)
COc1cc(N2CCC(N3CCN(C)CC3)CC2)ccc1Nc1ncnc(Nc2ccccc2S(=O)(=O)C(C)C)n1 [ASP-3026] | > 30 µM (inactive) | > 30 µM (inactive) | > 30 µM (inactive) | > 30 µM (inactive) | > 30 µM (inactive) | 0.033 µM (active) | > 30 µM (inactive) | > 30 µM (inactive) | > 30 µM (inactive) | > 30 µM (inactive) | > 30 µM (inactive)
CNC(=O)c1ccc(-c2cnc3ncc(Cc4ccc5ncccc5c4)n3n2)cc1F [CAPMATINIB] | > 30 µM (inactive) | > 30 µM (inactive) | > 30 µM (inactive) | > 30 µM (inactive) | > 30 µM (inactive) | > 30 µM (inactive) | > 30 µM (inactive) | > 30 µM (inactive) | > 30 µM (inactive) | > 30 µM (inactive) | > 30 µM (inactive)
Cc1c(F)cc(C(=O)NC2CC2)cc1-c1ccc(C(=O)NCC(C)(C)C)cn1 [LOSMAPIMOD] | > 30 µM (inactive) | > 30 µM (inactive) | > 30 µM (inactive) | > 30 µM (inactive) | – | > 30 µM (inactive) | > 30 µM (inactive) | > 30 µM (inactive) | > 30 µM (inactive) | > 30 µM (inactive) | > 30 µM (inactive)
